# Source: US11406605B2, “Therapeutic compositions for treating pancreatic cancer” (Golden Biotechnology Corporation, priority 2017, dated 2022)
# Where “and” joins values, the source holds several entries; their conditions need not be identical. Equal entries are not always repeated.
# How the values were obtained:
# [1] = 50, 100, 200, 300, 450, and 600 mg-dose levels, given daily for 4 weeks; cited from earlier work
# [2] = Body weight and hematological parameters in AsPC-1 xenograft study; type: in vivo
# Method: A. Clinical Observations: Clinical observations of each study animal were performed and at least once daily (including weekends and holidays) for signs of morbidity, mortality and Test Article toxicity. Morbidity includes signs of illness such as, but not limited to, emaciation, dehydration, lethargy, hunched posture, unkempt appearance, dyspnea and urine or fecal staining. All abnormal findings will be recorded.
# B. Animal Weights: Individual animal weights were taken one (1) time per week after/before dosing. Weights were recorded first prior to cell injections and continued for the duration of the study.
# D. Hematological parameters: Cardiac blood was collected in EDTA for analyzing hematological parameters such as white blood cell count (WBC), red blood cell count (RBC), hemoglobin concentration (HB), hematocrit, mean corpuscular hemoglobin and concentration, platelet distribution width, platelet count, neutrophils, lymphocytes, monocytes, eosinophils. This was determined using hematology counter (Abbott Cell-Dyn 3700, IL).
# [3] = test system: metastatic pancreatic cancer; experiment: Phase I study of Compound 1 with nab-paclitaxel and gemcitabine, preliminary results; type: in vivo, human; settings: 600 mg daily dosage of Compound 1 in combination with nab-paclitaxel and gemcitabine; after 3rd cycle (8 weeks treatment); individual patients
# Source text: This is a single-arm, open-label, multi-center Phase I study of Compound 1 in combination with nab-paclitaxel and gemcitabine in first line treatment naïve subjects with Stage IV metastatic pancreatic carcinoma.
# The first part of the study will follow a 3+3 dose escalation design to determine the MTD or MFD (based on PK and capsules strength) of antroquinonol in combination with standard dose regimen of nab-paclitaxel and gemcitabine. Two dose levels of antroquinonol given TID are planned based on dose escalation data and capsules strengths. The final number of subjects will be based on the number of dose levels investigated and DLTs occurrence. Up to 12 subjects may be treated in this part of the study. A Safety Monitoring Committee (SMC) will be set up for this study to review DLTs and overall safety data and judge the relevance of events to the dose escalation scheme. […]
# Treatments Administered: Compound 1 will be administered in 200- to 300-mg doses (planned dose levels), TID, given in 100 mg capsules (resulting a daily dosage of 600 mg to 900 mg). Additional dose levels may be investigated as determined by the study SMC. […]
# Efficacy Assessments: The RECIST 1.1 criteria will be used to assess subject response to treatment by determining ORR, DoR, DCR, PFS, PFS 3 months, and PFS 6 months. […] The OS, OS 6 months, and OS 12 months will also be evaluated.
# [4] = test system: AsPC-1 pancreatic cancer cells; experiment: Cytotoxicity of test articles (TC50), MTT assay; type: cell-based, Human; settings: concentration at which cell viability was reduced to 50%
# Method: The human pancreatic carcinoma cell lines, AsPC-1, PANC-1 and CaPan-2 were seeded 3×10^4 cells per well and cultured in a forty-eight (48) well cell culture dish (growth area 0.95 cm^2 per well). Sixteen (16) hours later, cells were treated Compound 1 alone or Compound 1 with a clinical chemotherapy drug, respectively. After 48 or 72 hours of the treatment, methylthiazoletetrazolium (MTT) assay (supplemental protocol-1) was performed to measure the effect of treatment on the viability of cells during proliferation.
# B. Cell Preparation • 1. Remove and discard culture medium. • 2. Briefly rinse the cell layer with 5 mL HBSS. Gently shake and remove the HBSS. • 3. Add 5 mL trypsin-EDTA to 15 cm^2 polystyrene dishes. Incubate 5 mins at 37° C. in a humidified incubator with 95% air/5% CO2 atmosphere. • 4. Add 5 mL of complete growth medium (DMEM medium containing 10% FBS) and aspirate cells by gently pipetting. • 5. Count live cells using the trypan blue exclusion assay (supplemental protocol-2) with a hemocytometer. • 6. For in vitro study, cells will be seeded 3×10^4 cells per well and cultured in a forty-eight (48) wells cell culture dish for sixteen (16) hours until treatment. • 7. Incubate cultures at 37° C.
# a. Cytotoxicity of test articles (TC50): AsPC-1 was seeded 3×10^4 cells (counted by Cell counter, LUNA™ Automated Cell Counter or hemocytometer) per well and cultured in a 48 wells cell culture dish. Cells were treated with single article from 400 or 800 μM with serial dilution to 0 μM. After 48 or 72 hours of treated, MTT assay was performed to measure the effect of treatment on the viability of AsPC-1 cells during proliferation. The absorbance at 595 nm was measured using a microplate reader (BioTEK, Synergy™ H1). Article sensitivity curves and TC50 values were calculated using GraphPad Prism 4.0 software.
# [5] = test system: AsPC-1 subcutaneous xenograft; experiment: Antitumor activity on AsPC-1 subcutaneous xenograft model; type: in vivo, nude mice
# Method: The human pancreatic carcinoma cell line, AsPC-1, was cultured and the cells were injected subcutaneously in a flank of 60 mice. Three days later, the tumors could be felt in the mice. When tumors reached approximately 100-200 mg (mm^3), total of fifty one (51) tumor-bearing mice were randomly selected and sorted into one of six (6) groups. Vehicle (corn oil) treated mice were used as negative controls. Compound 1 combined with gemcitabine or paclitaxel were administered orally once a day and/or I.V. twice a week for four (4) weeks. Tumor measurements were recorded once a week using hand-held calipers and Visualsonic Vevo 2100 image system. Individual mouse weights were taken once a week during dosing. Mice were monitored daily for signs of toxicity and morbidity; any abnormal findings were recorded. The study was terminated four (4) weeks after initiation of drug administration.
# D. Human Pancreatic Carcinoma Xenograft Models: • 1. To create the subcutaneous xenograft model, athymic female nude mice (4-6 weeks old) were subcutaneously inoculated with 1×10^7 AsPC-1 cells in 0.1 mL of serum-free DMEM medium containing 20% Matrigel (BD Biosciences, Bedford Mass.). • 2. Tumor-bearing animals were divided into the following 6 groups as table 1. • 3. The mice were monitored for activity and physical condition every day, and the determination of body weight and measurement tumor mass should be done once a week. Tumor image will be photed by digital camera and Visualsonic Vevo 2100 image system. Tumor mass is determined by caliper measurement in two perpendicular diameters of the implant and calculate using the formula […], where “a” stands for the long diameter and “b” is the short diameter.
# a. Cell Injections: Mice were injected subcutaneously into the right lateral thorax with 1×10^7 viable human pancreatic carcinoma AsPC-1 Cells. […]
# C. Tumor Measurements: The injection site of each animal was monitored one (1) time per week for signs of tumor growth. Throughout the study, the length (a) and width (b) of any tumors developed were measured in millimeters (mm) using vernier calipers, where a is the longer of the two (2) dimensions.
# D. Evaluation of drug synergistic effect by tumor growth inhibition (TGI) and tumor inhibitory ratio (TIR): Volume of tumor growth inhibition (TGI) for each group was calculated according to the following formula: Tumor growth inhibition (%)=(1−[T−T0]/[C−C0])×100 • T and T0 are the mean tumor volumes on the end day and day 1 of treatment, respectively, for the experimental groups. […] The tumor inhibitory ratio was calculated by the formula: Tumor inhibitory ratio (%)=[(WControl−WTreated)/WControl]×100% • WTreated and WControl are the average tumor weights of the treated and control mice, respectively. […]
# [6] = test system: orthotopic PANC-1 human pancreatic cancer xenograft; settings: 30, 60, and 90 mg/kg, cited from earlier work
# [7] = test system: metastatic pancreatic adenocarcinoma; settings: previously untreated metastatic pancreatic adenocarcinoma; cited from earlier work
# [8] = test system: advanced pancreatic cancer; settings: patients with advanced pancreatic cancer; cited from earlier work
# [9] = test system: advanced pancreatic cancer; settings: people with advanced pancreatic cancer; cited from earlier work
# [10] = cardiac blood, AsPC-1 xenograft study, mean ± SEM, n = 3
# [11] = Homo sapiens, ASPC1, AsPC-1 cells, 48 hrs
# [12] = Homo sapiens, ASPC1, AsPC-1 cells, 72 hrs
# [13] = AsPC-1 xenograft, 28 days treatment
smiles,measurement,setting,value
"COC1=C(OC)C(O)C(C/C=C(\C)CC/C=C(\C)CCC=C(C)C)C(C)C1=O (centres unmarked) [Compound 1, 4-hydroxy-2,3-dimethoxy-6-methyl-5-(3,7,11-trimethyldodeca-2,6,10-trienyl)cyclohex-2-enone]",safety and tolerability,[1],generally safe and well tolerated
same,number of blood cells,[2]; AsPC-1 xenograft,did not affect number of blood cells except for blood glucose
same,HCT,[2]; [10],50.3 ± 1.8%
same,HGB,[2]; [10],15.6 ± 1.1 g/dL
same,MCH,[2]; [10],15.3 ± 0.3 pg
same,MCV,[2]; [10],53.6 ± 2.3 fL
same,RBC,[2]; [10],9.93 ± 1.34 10^12/L
same,WBC,[2]; [10],7.34 ± 0.71 10^9/L
same,patient tumor size after treatment,[3],84 mm and 39 mm
same,patient tumor size reduced,[3],7.6% and 22%
same,CC50,[4]; [11],58.1 µM
same,CC50,[4]; [12],24 µM
same,"Response, TCR (tumor volume of treatment-to-control ratios)",[5]; [13],0.55
same,TGI (volume of tumor growth inhibition),[5]; [13],51%
same,TIR (tumor weight inhibitory ratio),[5]; [13],45%
same,Tumor weight of excised tumors at the time of sacrifice,"[5]; after 28 days of treatments, A 120 mg/kg oral daily, G/P IV twice weekly, mean ± SEM",0.21 ± 0.07 g
same,"tolerability, body weight loss",[6]; tumor bearing mice,tolerated well
same,anti-tumor activity (mean tumor volumes and tumor weights vs vehicle control),[6]; measured 10 days after drug treatment,effective anti-tumor activity
"O=c1[nH]cc(F)c(=O)[nH]1 [Compound 5-FU, 5-Fluorouracil]",CC50,[4]; [11],> 800 µM
same,CC50,[4]; [12],> 800 µM
C#Cc1cccc(Nc2ncnc3cc(OCCOC)c(OCCOC)cc23)c1 [Erlotinib],CC50,[4]; [11],> 800 µM
same,CC50,[4]; [12],> 800 µM
Nc1ccn([C@@H]2O[C@H](CO)[C@@H](O)C2(F)F)c(=O)n1 [Gemcitabine],Median PFS,[7],3.7 months
same,median OS,[7],6.7 months
same,Median progression-free survival (PFS),[8],3.3 months
same,median overall survival (OS),[8],6.8 months
same,CC50,[4]; [11],> 800 µM
same,CC50,[4]; [12],> 800 µM
same,improvement in median survival duration,[9],5 week
CCc1c2c(nc3ccc(OC(=O)N4CCC(N5CCCCC5)CC4)cc13)-c1cc3c(c(=O)n1C2)COC(=O)[C@]3(O)CC [Irinotecan],CC50,[4]; [11],221 µM
same,CC50,[4]; [12],68.3 µM
O=C1[O][Pt]2([NH][C@@H]3CCCC[C@H]3[NH]2)[O]C1=O [Oxaliplatin],CC50,"[4]; AsPC-1 cells, 48 hrs",655 µM
same,CC50,"[4]; AsPC-1 cells, 72 hrs",57.9 µM
CC(=O)O[C@H]1C(=O)[C@@]2(C)[C@H]([C@H](OC(=O)c3ccccc3)[C@]3(O)C[C@H](OC(=O)[C@H](O)[C@@H](NC(=O)c4ccccc4)c4ccccc4)C(C)=C1C3(C)C)[C@]1(OC(C)=O)CO[C@@H]1C[C@@H]2O [Paclitaxel],CC50,[4]; [11],7.05 µM
same,CC50,[4]; [12],3.72 µM
